Tested on: NCI-H295R
Assay: IC50 (antiproliferative, ATP content)
Conditions: 48 h
Outline: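 Adrenocortical carcinoma cells were plated at 1500 per well in 1536-well plates in serum-free DMEM with ITS supplement, left overnight, then given library compounds by pin transfer at 8 final concentrations spanning 0.6 nM to 46 µM and held 48 h at 37 °C, 5% CO2. ATP was measured as CellTiter-Glo luminescence after 20 min at room temperature and scaled between vehicle and positive-control wells. A four-parameter logistic model was fitted to each series. The IC50 was taken from these fits, and compounds without a concentration response were recorded as above the top dose.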

Row | SMILES | IC50
1 | Cl.c1ccc(CC2=NCCN2)cc1 | > 46 µM
2 | CC(C)(C)NCC(O)c1cc(Cl)c(N)c(Cl)c1 (centres undefined) | > 46 µM
3 | CCCCNC(=N)NC(=N)N | > 46 µM
4 | CC(C)(C)NCC(O)c1cc(Cl)c(N)c(C(F)(F)F)c1.Cl (centres undefined) | > 46 µM
5 | CCCCCCCCCCC(CO)CCCCCCCC (centres undefined) | > 46 µM
6 | NC(=O)NO | > 46 µM
7 | O=C(O)CCCc1ccc(N(CCCl)CCCl)cc1 | > 46 µM
8 | Cc1ccc(S(=O)(=O)NC(=O)NC2CCCCC2)cc1 | > 46 µM
9 | CC(C(=O)O)c1ccc(-c2ccccc2)c(F)c1 (centres undefined) | > 46 µM
10 | COc1c(O)cc2c(c1O)[C@@H]1O[C@H](CO)[C@@H](O)[C@H](O)[C@H]1OC2=O.O | > 46 µM
11 | O[C@H]1[C@H]2[C@H](O)CCCN2C[C@H]1O | > 46 µM
12 | CN(C)C(=O)Oc1cccc([N+](C)(C)C)c1.[Br-] | > 46 µM
13 | CCCCCCCCCCCCCC(=O)OCC(COP(=O)([O-])OCC[N+](C)(C)C)OC(=O)CCCCCCCCCCCCC (centres undefined) | > 46 µM
14 | CO[C@H]1/C=C/O[C@@]2(C)Oc3c(C)c(O)c4c(O)c(cc([O-])c4c3C2=O)NC(=O)/C(C)=C\C=C\[C@H](C)[C@H](O)[C@@H](C)[C@@H](O)[C@@H](C)[C@H](OC(C)=O)[C@@H]1C.[Na+] | > 46 µM
15 | CC[N+](C)(CC)CCOC(=O)C(O)(c1ccccc1)C1CCCCC1.[Br-] (centres undefined) | > 46 µM
16 | Nc1nc(O)c(-c2ccccc2)o1 | > 46 µM
17 | CCn1cc(C(=O)O)c(=O)c2cc3c(cc21)OCO3 | > 46 µM
18 | COCCc1ccc(OCC(O)CNC(C)C)cc1.COCCc1ccc(OCC(O)CNC(C)C)cc1.O=C(O)[C@H](O)[C@@H](O)C(=O)O (centres undefined) | > 46 µM
19 | Nc1ccc(C(=O)NCC(=O)O)cc1 | > 46 µM
20 | C=CCN(C1=NCCN1)c1c(Cl)cccc1Cl | > 46 µM
21 | CN1CCN(c2c(F)cc3c(=O)c(C(=O)O)cn(CCF)c3c2F)CC1 | > 46 µM
22 | O=S(=O)(O)c1cc(I)c(O)c2ncccc12 | > 46 µM
23 | Oc1cc(Cl)ccc1Oc1ccc(Cl)cc1Cl | > 46 µM
24 | C[N+]1(C)[C@@H]2CC[C@H]1C[C@H](OC(=O)c1c[nH]c3ccccc13)C2.[I-] | > 46 µM
25 | OC(c1ccccc1)(c1ccccc1)C1CCNCC1 | > 46 µM
26 | Cc1ccc(=O)n(-c2ccccc2)c1 | > 46 µM
27 | O=C(CCNNC(=O)c1ccncc1)NCc1ccccc1 | > 46 µM
28 | Cc1nc[nH]c1CN1CCc2c(c3ccccc3n2C)C1=O.Cl | > 46 µM
29 | CN(C)CC/C=C1C(C=CC=C3)=C3C=CC2=C\1C=CC=C2.Cl | > 46 µM

The remaining lines, values ahead:

Row | IC50 | SMILES
30 | > 46 µM | NC(=O)c1cccnc1
31 | > 46 µM | O=C1N2[C@@](SC(C)(C)[C@@H]2[C@@](O)=O)([H])[C@@]([H])1NC([C@H](NC([C@H](N)CC(NC)=O)=O)[C@@]3=CC=C(O)C=C3)=O
32 | > 46 µM | O=S([C@](CN1C=CN=N1)(C)[C@H]([C@]([O-])=O)N2C3=O)([C@@]([H])2C3)=O.[Na+]
33 | > 46 µM | CC(O)C(=O)O (centres undefined)
34 | > 46 µM | C[C@]12C[C@H](O)[C@H]3[C@@H](CCC4=CC(=O)CC[C@@]43C)[C@@H]1CC[C@H]2C(=O)CO
35 | > 46 µM | O=C(NCCc1c[nH]c2ccccc12)c1cccnc1
36 | > 46 µM | CC(C)[C@H](N)C(=O)OCCOCn1cnc2c(=O)[nH]c(N)nc21.Cl
37 | > 46 µM | CCOc1ccc2c(c1)C(C)=CC(C)(C)N2
38 | > 46 µM | O=C(NCC1CCCCN1)c1cc(OCC(F)(F)F)ccc1OCC(F)(F)F (centres undefined)
39 | > 46 µM | CCC(=O)O[C@]1(C(=O)CCl)[C@@H](C)C[C@H]2[C@@H]3CCC4=CC(=O)C=C[C@]4(C)[C@@]3(F)[C@@H](O)C[C@@]21C
40 | > 46 µM | Nc1cc(-c2ccncc2)c[nH]c1=O
41 | > 46 µM | CN1C(=O)CC(c2ccccc2)C1=O (centres undefined)
42 | > 46 µM | O=C(C=Cc1ccccc1)OCc1ccccc1
43 | > 46 µM | Cc1cccc(C)c1NC(=O)CN1CCN(CCCC(c2ccc(F)cc2)c2ccc(F)cc2)CC1
44 | > 46 µM | CCN1CCC[C@H]1CNC(=O)c1cc(S(N)(=O)=O)ccc1OC
